PubChem BioAssay AID651733 (The Scripps Research Institute Molecular Screening Center, 2012)
Where “and” joins values, the source holds several entries; their conditions need not be identical. Equal values may be shown once. Calls of active or inactive are those of the source. The rule behind the calls is not given here.

Each molecule was assayed against Perilipin-5 (Homo sapiens) + 1-acylglycerol-3-phosphate O-acyltransferase ABHD5 (Homo sapiens) (UniProt Q00G26+Q8WTS1) (assay: ABHD5-PLIN5 interaction inhibitors, dose response, cell lysate, luminescence, proteins expressed in HEK293T (AID 651733);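 note: split Gaussia princeps luciferase complementation between ABHD5 and MLDP fusion proteins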).
Chain of Perilipin-5 (Homo sapiens) + 1-acylglycerol-3-phosphate O-acyltransferase ABHD5 (Homo sapiens) (Q00G26 whole entry, looked up, the tested form may be a part): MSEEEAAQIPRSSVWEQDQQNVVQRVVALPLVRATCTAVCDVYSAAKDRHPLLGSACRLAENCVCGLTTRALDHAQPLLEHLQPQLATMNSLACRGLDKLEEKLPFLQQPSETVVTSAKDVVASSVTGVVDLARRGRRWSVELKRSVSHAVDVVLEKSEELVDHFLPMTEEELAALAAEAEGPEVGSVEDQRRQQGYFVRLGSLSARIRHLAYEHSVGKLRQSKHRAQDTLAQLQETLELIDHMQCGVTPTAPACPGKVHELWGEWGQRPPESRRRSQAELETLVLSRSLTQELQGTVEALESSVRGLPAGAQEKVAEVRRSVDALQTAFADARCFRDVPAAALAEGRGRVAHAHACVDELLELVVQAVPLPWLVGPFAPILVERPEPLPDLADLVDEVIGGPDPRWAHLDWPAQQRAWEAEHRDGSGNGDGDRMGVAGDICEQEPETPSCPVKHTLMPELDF
Chain of Perilipin-5 (Homo sapiens) + 1-acylglycerol-3-phosphate O-acyltransferase ABHD5 (Homo sapiens) (Q8WTS1 whole entry, looked up, the tested form may be a part): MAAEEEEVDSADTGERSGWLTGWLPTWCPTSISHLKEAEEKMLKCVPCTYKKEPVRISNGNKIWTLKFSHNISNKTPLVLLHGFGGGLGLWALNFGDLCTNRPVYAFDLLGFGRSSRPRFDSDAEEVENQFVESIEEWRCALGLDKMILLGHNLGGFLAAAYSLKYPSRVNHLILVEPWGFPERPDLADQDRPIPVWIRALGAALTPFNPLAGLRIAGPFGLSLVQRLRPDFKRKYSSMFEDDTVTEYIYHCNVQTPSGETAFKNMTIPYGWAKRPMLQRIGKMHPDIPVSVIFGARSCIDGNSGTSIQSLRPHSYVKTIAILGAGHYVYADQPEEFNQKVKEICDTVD
With `Cc1cccc(C)c1NC(=O)C(c1ccc(C(F)(F)F)cc1)n1c(=O)c(-c2ccco2)nc2ccccc21` (stereo not drawn) the IC50 was 3.73 µM.
`CCOC(=O)c1c(C)oc2c1c(CN1CCN(CCO)CC1)c(O)c1ccccc12` gave an IC50 of 3.58 µM.
With `CN(C)CCCN(C(=O)CCc1ccccc1)c1nc2ccc(Cl)cc2s1` the IC50 was “inactive”.
For `CN(C)CCN(Cc1ccco1)c1ccccn1`, the IC50 was 4.4 µM.
With `CC(=O)C1=C(c2cccc([N+](=O)[O-])c2)N(C(C)=O)n2c(C)nnc2S1` the IC50 was 4.3 µM.
Molecule `Cc1ccc(/C=C/C(=O)c2cc(Br)ccc2OC(=O)c2ccco2)cc1` has an IC50 of 0.68 µM.
`O=C(NCc1ccccc1)C(c1cc2ccccc2o1)n1c(=O)c(-c2ccco2)nc2ccccc21` (stereo not drawn) gave an IC50 of 4.86 µM.
With `C#CCN(C[C@@H]1[C@@H](OC(=O)NCc2ccccc2F)[C@@H](OC(=O)NCc2ccccc2F)Cn2c(=O)ccc(=O)n21)S(=O)(=O)c1ccc(C)cc1` the IC50 was 6.28 µM.
Work on `Cc1ccc(C)c(/C=C/C(=O)c2ccccc(=O)c2O)c1` yielded an IC50 of 5.69 µM.
`O=c1[nH]c(C2CCN(S(=O)(=O)c3ccc(S(=O)(=O)NC4CC4)cc3)CC2)nc2c1nnn2Cc1ccc(F)cc1` gave an IC50 of 2.39 µM.
Work on `CC(c1nc2ccccc2[nH]1)n1c(=O)c(-c2ccco2)nc2ccccc21` (stereo not drawn) yielded an IC50 of 6.21 µM.
`CCCCOC(=O)Nc1cc(C(=O)OC)ccc1C(=O)OC` was tested, and the IC50 was 4.5 µM.
`COc1ccc(C(C(=O)NCc2ccccc2)n2c(=O)c(-c3ccco3)nc3ccccc32)cc1` (stereo not drawn) was tested, and the IC50 was 5.37 µM.
Work on `CCCCCNC(=O)C(c1ccc(C(F)(F)F)cc1)n1c(=O)c(-c2ccco2)nc2ccccc21` (stereo not drawn) yielded an IC50 of 3.44 µM.
Molecule `CC(C)(C)NC(=O)C(c1ccc(C(F)(F)F)cc1)n1c(=O)c(-c2ccco2)nc2ccccc21` (stereo not drawn) has an IC50 of 6.67 µM.
Molecule `Cc1ccc(O)c(C(=O)/C=C/c2ccc3c(c2)OCCCO3)c1` has an IC50 of 4.93 µM.
For `CCCC(=O)NC(c1cccc([N+](=O)[O-])c1)c1ccc2cccnc2c1O` (stereo not drawn), the IC50 was “inactive”.
`CC(O)CC(=O)OC[C@]12CC[C@H]3[C@@](C)(CC[C@H]4C(C)(C)CCC[C@]34C)[C@@H]1CC(C1=CC(=O)OC1O)O2` (stereo partly drawn) showed an IC50 of 1.37 µM.
With `O=c1nc(/C=C/c2ccc(Cl)cc2Cl)cc(C(F)(F)F)[nH]1` the IC50 was 2.98 µM.
For `NC(=NCCCCCCN=C(N)/N=C(\N)Nc1ccc(Cl)cc1)/N=C(\N)Nc1ccc(Cl)cc1`, the IC50 was 6 µM and 4.02 µM.
Molecule `CC1=CC(C)(C)Nc2ccc(OC(=O)C(C)N3C(=O)c4ccccc4C3=O)cc21` (stereo not drawn) has an IC50 of 3.65 µM.
With `COc1ccc(-c2cc(N)n(S(=O)(=O)c3c(F)c(F)c(F)c(F)c3F)n2)cc1OC` the IC50 was “inactive”.
Work on `O=C(/C(=C/c1ccccc1)n1cncn1)c1ccc(Cl)cc1Cl` yielded an IC50 of 2.13 µM.
`CN(C)CCOc1ccc(/C(=C(/CCCl)c2ccccc2)c2ccccc2)cc1` was tested, and the IC50 was 1.2 µM.
For `C#CCN(C[C@@H]1[C@@H](OC(=O)NCC2CCCCC2)[C@@H](OC(=O)NCC2CCCCC2)Cn2c(=O)ccc(=O)n21)S(=O)(=O)c1ccc(C)cc1`, the IC50 was 4.5 µM.
Work on `O=C(/C=C/c1ccc(NC(=O)c2ccccc2-c2ccccc2C(=O)O)cc1)c1ccccc1` yielded an IC50 of 8.25 µM.
`C=CC(=O)N1c2ccccc2Sc2ccc(NC(=O)OCC)cc21` showed an IC50 of 4.84 µM.
`CCN1CCN(Cc2ccc(NC(=O)c3ccc(C)c(/C=C/c4cnc(Nc5cc(N6CCNCC6)nc(C)n5)cn4)c3)cc2C(F)(F)F)CC1` showed an IC50 of 6.01 µM.
`CSc1nnc(NC(=O)c2nc(S(=O)(=O)Cc3ccc(C)cc3)ncc2Cl)s1` showed an IC50 of 3.88 µM.
`O=C(Nc1ccc2c(c1)OCCO2)C(c1ccccc1F)n1c(=O)c(-c2ccco2)nc2ccccc21` (stereo not drawn) was tested, and the IC50 was “inactive”.
For `CC1CCN(S(=O)(=O)c2ccc(NC(=O)Cc3ccccc3)cc2)CC1`, the IC50 was 5.73 µM.
For `Cc1ccc(CC2(OCCN(C)C)CCC(C(C)(C)C)CC2)cc1` (stereo not drawn), the IC50 was 4.85 µM.
Work on `CCCCCNC(=O)C(c1cc2ccccc2o1)n1c(=O)c(-c2ccco2)nc2ccccc21` (stereo not drawn) yielded an IC50 of 3.08 µM.
`CN1CCC(=C2c3ccccc3CC(=O)c3sccc32)CC1` was tested, and the IC50 was 5.57 µM and 5.43 µM.
`CC1(C)C2CCC(CN=C(N)CSS(=O)(=O)O)C1C2` (stereo not drawn) showed an IC50 of 4.64 µM.
`CC(=O)Cc1cc(O)c2ccccc2c1OC(=O)c1ccccc1` was tested, and the IC50 was 5.35 µM.
Work on `O=C(NCc1ccccc1)C(c1ccccc1)n1c(=O)c(-c2ccco2)nc2ccccc21` (stereo not drawn) yielded an IC50 of 4.77 µM.
`COc1ccc(C(C(=O)NC2CCCCC2)n2c(=O)c(-c3ccco3)nc3ccccc32)cc1` (stereo not drawn) showed an IC50 of 3.87 µM.
With `O=C(NC1CCCCC1)C(c1ccc(-c2ccccc2)cc1)n1c(=O)c(-c2ccco2)nc2ccccc21` (stereo not drawn) the IC50 was 4.1 µM.
`Cc1cccc(C)c1NC(=O)C(c1ccc(-c2ccccc2)cc1)n1c(=O)c(-c2ccco2)nc2ccccc21` (stereo not drawn) was tested, and the IC50 was 2.64 µM.
`N#Cc1ccc(C(C(=O)Nc2ccc3c(c2)OCCO3)n2c(=O)c(-c3ccco3)nc3ccccc32)cc1` (stereo not drawn) was tested, and the IC50 was “inactive”.
For `O=C1/C(=C/c2cccnc2)CC/C1=C\c1cccnc1`, the IC50 was 4.26 µM.
`COc1ccccc1/C=C/C(=O)c1ccccc1` gave an IC50 of 9.15 µM.
`CC(=O)Oc1ccc(C23c4ccccc4C2(OC(C)=O)c2cc(OC(C)=O)ccc23)cc1` (stereo not drawn) was tested, and the IC50 was 1.33 µM.
`CN(C)CCOC1(Cc2ccc(F)cc2)CCC(C(C)(C)C)CC1` (stereo not drawn) was tested, and the IC50 was 6.65 µM.
With `CN1C(=O)/C(=C/C=C/c2ccco2)C(=O)NC1=S` the IC50 was “inactive”.
With `CC(C)(C)NC(=O)C(c1ccncc1)n1c(=O)c(-c2ccco2)nc2ccccc21` (stereo not drawn) the IC50 was 4.21 µM.
In the case of `Cc1cc(C)c(NC(=O)CN2CCN3CCCC3C2)c(C)c1` (stereo not drawn), the IC50 is reported as 4.81 µM.
In the case of `Cc1ccc2sc(N(CCCN(C)C)C(=O)CN3C(=O)c4ccccc4C3=O)nc2c1C`, the IC50 is reported as “inactive”.
Work on `COc1ccc(/C=C\C(=O)CC(O)(c2ccccc2)C(F)(F)F)cc1` (stereo not drawn) yielded an IC50 of 1.97 µM.
`COc1cc(/C=C/C(=O)c2ccc(Cl)s2)cc(OC)c1O` was tested, and the IC50 was 6.42 µM.
Work on `CCN1/C(=C/C=C/c2oc3ccc(-c4ccccc4)cc3[n+]2CC)Oc2ccc(-c3ccccc3)cc21` yielded an IC50 of 1.12 µM.
`Cc1ccc(C(=O)c2coc3c2C(=O)C(=O)c2ccccc2-3)cc1` gave an IC50 of 6.15 µM.
`CCOC(=O)C1CCCN(C(=O)c2cc(Nc3ccc(OC)cc3)nc3ccccc23)C1` (stereo not drawn) was tested, and the IC50 was “inactive”.
Molecule `CCN(CC)CCOc1ccc(/C(=C(\Cl)c2ccccc2)c2ccccc2)cc1` has an IC50 of 2.39 µM.
With `CC(=O)Oc1c(Cl)cc(N(C(C)=O)S(=O)(=O)c2ccccc2)c2ccccc12` the IC50 was 7.06 µM.
For `Cc1ccc(CS(=O)(=O)c2ncc(Cl)c(C(=O)Nc3nnc(C(C)C)s3)n2)cc1`, the IC50 was 2.88 µM.
In the case of `CCCCCNC(=O)C(c1ccc(OC)cc1)n1c(=O)c(-c2ccco2)nc2ccccc21` (stereo not drawn), the IC50 is reported as 3.4 µM.
